For 15 compounds, EC50, Emax and fold change (FC) results are on record in ChEMBL document CHEMBL4342477, “Single Nucleotide Polymorphisms in the Melanocortin His-Phe-Arg-Trp Sequences Decrease Tetrapeptide Potency and Efficacy” (ACS Med Chem Lett, 2020).

Holding throughout (type): functional, cell-based
One assay deals with Melanocortin receptor 3 (Mus musculus, UniProt P33033). As to the kind of experiment: Agonist activity at mouse melanocortin receptor 3 expressed in HEK293 cells assessed as stimulation of cAMP accumulation incubated for 2 hrs by cAMP Alpha-screen assay. Background: Changes in cAMP serve as a functional read-out for many G protein-coupled receptors.
The target of assay [1] is T1, Melanocyte-stimulating hormone receptor (Mus musculus, UniProt Q01727). As to the kind of experiment: Agonist activity at mouse melanocortin receptor 1 expressed in HEK293 cells assessed as stimulation of cAMP accumulation incubated for 2 hrs by cAMP AlphaScreen assay.
Another assay concerns the target Melanocortin receptor 5 (Mus musculus, UniProt P41149). As to the kind of experiment: Agonist activity at mouse melanocortin receptor 5 expressed in HEK293 cells assessed as stimulation of cAMP accumulation incubated for 2 hrs by cAMP Alpha-screen assay.
The target of the next assay is Melanocortin receptor 4 (Mus musculus, UniProt P56450). As to the kind of experiment: Agonist activity at mouse melanocortin receptor 4 expressed in HEK293 cells assessed as stimulation of cAMP accumulation incubated for 2 hrs by cAMP Alpha-screen assay.
The target of assay [2] is Melanocortin receptor 3 (Mus musculus) (UniProt P33033). As to the kind of experiment: Partial agonist activity at mouse melanocortin receptor 3 expressed in HEK293 cells assessed as stimulation of cAMP accumulation incubated for 2 hrs by cAMP Alpha-screen assay relative to NDP-MSH.
The target of assay [3] is Melanocortin receptor 4 (Mus musculus) (UniProt P56450). As to the kind of experiment: Agonist activity at mouse melanocortin receptor 4 expressed in HEK293 cells assessed as fold decrease in potency of stimulation of cAMP accumulation incubated for 2 hrs by cAMP Alpha-screen assay relative to Ac-His-DPhe-Arg-Trp-NH2.
For assay [4] the target is unchanged. As to the kind of experiment: Partial agonist activity at mouse melanocortin receptor 4 expressed in HEK293 cells assessed as stimulation of cAMP accumulation incubated for 2 hrs by cAMP Alpha-screen assay relative to NDP-MSH.
The target of assay [5] is Melanocortin receptor 5 (Mus musculus) (UniProt P41149). As to the kind of experiment: Agonist activity at mouse melanocortin receptor 5 expressed in HEK293 cells assessed as stimulation of cAMP accumulation at 100 uM incubated for 2 hrs by cAMP Alpha-screen assay relative to control.
Assay [6] addresses Melanocyte-stimulating hormone receptor (Mus musculus) (UniProt Q01727). As to the kind of experiment: Agonist activity at mouse melanocortin receptor 1 expressed in HEK293 cells assessed as stimulation of cAMP accumulation at 100 uM incubated for 2 hrs by cAMP AlphaScreen assay relative to control.
The target in assay [7] is Melanocortin receptor 3 (Mus musculus) (UniProt P33033). As to the kind of experiment: Agonist activity at mouse melanocortin receptor 3 expressed in HEK293 cells assessed as stimulation of cAMP accumulation at 100 uM incubated for 2 hrs by cAMP Alpha-screen assay relative to control.
The target in assay [8] is Melanocyte-stimulating hormone receptor (Mus musculus) (UniProt Q01727). As to the kind of experiment: Agonist activity at mouse melanocortin receptor 1 expressed in HEK293 cells assessed as fold decrease in potency of stimulation of cAMP accumulation incubated for 2 hrs by cAMP AlphaScreen assay.
Assay [9] has as its target Melanocortin receptor 4 (Mus musculus) (UniProt P56450). As to the kind of experiment: Agonist activity at mouse melanocortin receptor 4 expressed in HEK293 cells assessed as fold decrease in potency of stimulation of cAMP accumulation incubated for 2 hrs by cAMP Alpha-screen assay.
For assay [10], the target named is Melanocortin receptor 5 (Mus musculus) (UniProt P41149). As to the kind of experiment: Partial agonist activity at mouse melanocortin receptor 5 expressed in HEK293 cells assessed as stimulation of cAMP accumulation incubated for 2 hrs by cAMP Alpha-screen assay relative to NDP-MSH.
For assay [11], the target named is T1, Melanocyte-stimulating hormone receptor. As to the kind of experiment: Agonist activity at mouse melanocortin receptor 1 expressed in HEK293 cells assessed as stimulation of cAMP accumulation incubated for 6 hrs by beta-galactosidase cAMP assay.

pEC50: −log10 of the molar value. Non-standard residues stand in square brackets, D forms with d. Residues, ends and D or L forms follow the SMILES beside them.

In general, pEC50 refers to the EC50 on a negative log10 scale, so that one unit is a factor of ten. By Emax is commonly meant the size of the effect at its maximum, as opposed to the concentration needed.

Sequence of Melanocortin receptor 3 (P33033 whole entry): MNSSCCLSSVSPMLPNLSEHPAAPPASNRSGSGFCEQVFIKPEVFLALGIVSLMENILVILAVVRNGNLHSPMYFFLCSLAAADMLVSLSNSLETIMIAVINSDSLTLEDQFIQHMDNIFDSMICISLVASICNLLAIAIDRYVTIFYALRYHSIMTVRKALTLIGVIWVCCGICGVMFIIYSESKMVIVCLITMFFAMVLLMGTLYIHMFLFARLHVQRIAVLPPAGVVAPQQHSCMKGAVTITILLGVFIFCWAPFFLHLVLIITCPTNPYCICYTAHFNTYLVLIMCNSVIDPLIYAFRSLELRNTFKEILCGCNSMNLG
Sequence of Melanocortin receptor 3 (Mus musculus) (P33033 whole entry): as above
Sequence of Melanocortin receptor 4 (P56450 whole entry): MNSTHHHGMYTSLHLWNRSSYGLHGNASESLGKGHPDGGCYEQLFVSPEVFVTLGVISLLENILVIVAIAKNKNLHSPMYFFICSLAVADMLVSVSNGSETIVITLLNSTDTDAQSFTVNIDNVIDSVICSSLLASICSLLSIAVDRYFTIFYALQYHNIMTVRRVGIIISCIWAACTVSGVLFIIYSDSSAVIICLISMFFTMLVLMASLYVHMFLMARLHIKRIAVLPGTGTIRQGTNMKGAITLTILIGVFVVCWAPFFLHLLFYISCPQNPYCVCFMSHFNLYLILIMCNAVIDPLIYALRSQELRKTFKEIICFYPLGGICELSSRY
Sequence of Melanocortin receptor 4 (Mus musculus) (P56450 whole entry): as above
Sequence of Melanocortin receptor 5 (P41149 whole entry): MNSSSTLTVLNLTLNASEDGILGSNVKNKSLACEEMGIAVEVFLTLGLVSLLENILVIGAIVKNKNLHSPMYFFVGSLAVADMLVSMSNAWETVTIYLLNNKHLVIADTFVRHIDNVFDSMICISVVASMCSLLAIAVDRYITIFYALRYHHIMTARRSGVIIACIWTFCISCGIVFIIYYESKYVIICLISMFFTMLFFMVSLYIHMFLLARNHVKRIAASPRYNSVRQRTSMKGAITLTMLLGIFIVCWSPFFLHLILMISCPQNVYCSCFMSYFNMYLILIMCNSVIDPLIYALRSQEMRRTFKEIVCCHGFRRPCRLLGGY
Sequence of Melanocortin receptor 5 (Mus musculus) (P41149 whole entry): as above
T1 sequence (Q01727 whole entry): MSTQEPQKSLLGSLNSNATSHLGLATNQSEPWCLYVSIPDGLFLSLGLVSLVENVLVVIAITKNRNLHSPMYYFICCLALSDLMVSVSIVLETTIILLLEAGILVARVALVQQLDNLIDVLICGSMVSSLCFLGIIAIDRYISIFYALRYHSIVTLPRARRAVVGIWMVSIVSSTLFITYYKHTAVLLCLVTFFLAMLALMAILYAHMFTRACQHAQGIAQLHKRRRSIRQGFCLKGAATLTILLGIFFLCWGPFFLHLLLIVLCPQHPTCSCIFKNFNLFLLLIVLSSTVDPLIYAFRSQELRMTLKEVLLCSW
Sequence of Melanocyte-stimulating hormone receptor (Mus musculus) (Q01727 whole entry, looked up): as the sequence (Q01727 whole entry) above

For `CC(=O)N[C@@H](Cc1cnc[nH]1)C(=O)N[C@H](C(=O)N[C@@H](CCCNC(=N)N)C(=O)N[C@@H](Cc1c[nH]c2ccccc12)C(N)=O)C(C)C` (Ac-HVRW-NH2), the pEC50 (at Melanocortin receptor 3; in [1]; on Melanocortin receptor 5; on Melanocortin receptor 4) was under 4.00 throughout.
Consider `CC(=O)N[C@@H](CCC(N)=O)C(=O)N[C@H](Cc1ccccc1)C(=O)N[C@@H](CCCNC(=N)N)C(=O)N[C@@H](Cc1c[nH]c2ccccc12)C(N)=O`, for which the pEC50 was 5.89 on Melanocortin receptor 3, 5.80 in assay [1], 6.57 on Melanocortin receptor 5 and 6.57 on Melanocortin receptor 4. Further, the Emax in assay [2] and in assay [4] was 80% in each case. Moreover, the fold change (FC) in assay [3] worked out at 10.
On to `CC(=O)N[C@@H](Cc1cnc[nH]1)C(=O)N[C@H](Cc1ccccc1)C(=O)N[C@@H](CCCNC(=N)N)C(=O)N[C@@H](CCCNC(=N)N)C(N)=O`, for which the values for the pEC50 (on Melanocortin receptor 3; in [1]; at Melanocortin receptor 4) were under 4.00, 6.05 and under 4.00, respectively. Moreover, in [5], the Emax was 20%.
In the case of `CC(=O)N[C@@H](Cc1cnc[nH]1)C(=O)N[C@@H](CC(C)C)C(=O)N[C@@H](CCCNC(=N)N)C(=O)N[C@@H](Cc1c[nH]c2ccccc12)C(N)=O` (Ac-HLRW-NH2), the pEC50 at Melanocortin receptor 3 and at Melanocortin receptor 4 was under 4.00 throughout. Also, the Emax in assay [6] and in [5] was 25% in each case.
For `CC(=O)N[C@@H](Cc1cnc[nH]1)C(=O)N[C@H](Cc1ccccc1)C(=O)N[C@@H](CCCNC(=N)N)C(=O)NCC(N)=O`, the pEC50 on Melanocortin receptor 3 was under 4.00; in assay [1] it was 5.89; on Melanocortin receptor 5, under 4.00; at Melanocortin receptor 4, under 4.00.
Turning to `CC(=O)N[C@@H](Cc1cnc[nH]1)C(=O)N[C@H](Cc1ccccc1)C(=O)N[C@@H](CCCNC(=N)N)C(=O)N[C@@H](Cc1c[nH]c2ccccc12)C(N)=O`, the Emax in [7] was found to be 30%.
With `CC(=O)N[C@@H](Cc1cnc[nH]1)C(=O)N[C@H](Cc1ccccc1)C(=O)N[C@@H](CS)C(=O)N[C@@H](Cc1c[nH]c2ccccc12)C(N)=O`, the results for the fold change (FC) in assay [8] and in assay [9] were 25 and 140, respectively. In addition, the pEC50 on Melanocortin receptor 3 was 5.22; in assay [1], 6.40; at Melanocortin receptor 5 it was 5.77; at Melanocortin receptor 4, 5.51. Besides, the Emax in [2] worked out at 85%.
With `CC(=O)N[C@@H](Cc1c[nH]cn1)C(=O)N[C@@H](Cc1ccccc1)C(=O)N[C@@H](CCCN=C(N)N)C(=O)N[C@@H](Cc1c[nH]c2ccccc12)C(N)=O`, the pEC50 at Melanocortin receptor 5 is 6.66.
As to `CC(=O)N[C@@H](Cc1cnc[nH]1)C(=O)N[C@H](Cc1ccccc1)C(=O)N[C@@H](CCCNC(=N)N)C(=O)N[C@@H](CO)C(N)=O`, the pEC50 in [1] was 5.80; on Melanocortin receptor 4, under 4.00. In addition, the Emax in assay [7] amounted to 50%; in assay [5], 75%.
On to `CC(=O)N[C@@H](Cc1cnc[nH]1)C(=O)N[C@H](Cc1ccccc1)C(=O)N[C@@H](CCCN=C(N)N)C(=O)N[C@@H](Cc1c[nH]c2ccccc12)C(N)=O`, for which the figures for the pEC50 on Melanocortin receptor 5 and at Melanocortin receptor 4 were 7.96 and 7.68, respectively.
With `CC(=O)N[C@@H](Cc1cnc[nH]1)C(=O)N[C@H](Cc1ccccc1)C(=O)N[C@@H](CC(C)C)C(=O)N[C@@H](Cc1c[nH]c2ccccc12)C(N)=O`, the figures for the pEC50 (in [1]; on Melanocortin receptor 5; at Melanocortin receptor 4) were 7.05, 5.70 and 5.42, respectively. Further, the values for the Emax in assay [7] and in assay [4] were 25% and 85%, respectively.
For the compound `CC(=O)N[C@@H](Cc1ccc(O)cc1)C(=O)N[C@H](Cc1ccccc1)C(=O)N[C@@H](CCCNC(=N)N)C(=O)N[C@@H](Cc1c[nH]c2ccccc12)C(N)=O` (Ac-Y[dF]RW-NH2), the Emax in [10] is 80%; in [2] it was 50%; in assay [4], 65%. In addition, the pEC50 on Melanocortin receptor 3 was 5.52; in assay [1], 5.92; on Melanocortin receptor 5, 6.40; at Melanocortin receptor 4 it was 7.05.
For the compound `CC(=O)N[C@@H](Cc1cnc[nH]1)C(=O)N[C@H](Cc1ccccc1)C(=O)N[C@@H](Cc1cnc[nH]1)C(=O)N[C@@H](Cc1c[nH]c2ccccc12)C(N)=O`, the pEC50 at Melanocortin receptor 3 was 5.40; in assay [1], 5.89; on Melanocortin receptor 5, 6.52; on Melanocortin receptor 4, 6.30. For the same compound, in [2], the Emax was 85%.
In the case of `CC(=O)N1CCC[C@H]1C(=O)N[C@H](Cc1ccccc1)C(=O)N[C@@H](CCCN=C(N)N)C(=O)N[C@@H](Cc1c[nH]c2ccccc12)C(N)=O` (Ac-P[dF]RW-NH2), the Emax stood at 80% in assay [10] and 60% in assay [4]. Further, the pEC50 is 5.68 in assay [1], 5.70 on Melanocortin receptor 5, 5.40 in assay [11] and 6.00 on Melanocortin receptor 4.
`CC(=O)N[C@@H](Cc1cnc[nH]1)C(=O)N[C@H](Cc1ccccc1)C(=O)N[C@@H](CCCNC(=N)N)C(=O)N[C@@H](CC(C)C)C(N)=O`: the results for the pEC50 (in assay [1]; on Melanocortin receptor 4) were 5.80 and under 4.00, respectively. Besides, the Emax was 20% in [7] and 40% in assay [5].
